In patent publication US12275694B2, “Pharmaceutically acceptable salts of [2-(3-fluoro-5-methane-sulfonylphenoxy)ethyl](propyl)amine and uses thereof” (INTEGRATIVE RESEARCH LABORATORIES SWEDEN AB, priority 2019, dated 2025):
Where two headings read alike, the source gives them in different places.

How the values were obtained:
[1] = tested on: Parkinson's patients with L-dopa induced dyskinesia (LIDs); experiment: Human clinical study, 24-hour patient home diaries, good ON time; type: in vivo; conditions: 2.0 mg up to 10 mg such as 2.5, 5.0 or 7.5 mg, compared with an amount equal to or above 10 mg
From the text: Home diaries have gained wide acceptance as endpoints for clinical development of therapeutics aiming to reduce treatment-related motor complications. Motor fluctuations are associated with compromise in activities of daily living and health-related quality of life. In clinical trials performed by Integrative Research Laboratories Sweden AB patients record their 24-hours motor function in 30-minute intervals, beginning at midnight. For each 30-minute interval the patient rates the state he or she has been in for the past 30 minutes; OFF, ON without troublesome dyskinesia or ON with troublesome dyskinesia. The patient also denoted the time when he or she has been asleep.
In general, an “OFF” time reduction or “good ON-time” increase of 1 hour may be considered clinically significant and has been used as an assumption in power calculations in clinical trials. […]
A valid diary is defined as not having more than 2 hours of invalid data entries (4 invalid entries) over a given 24-hour period. An invalid diary entry is defined as more than one entry recorded in each half-hour interval, an unreadable entry, or the absence of an entry in each half-hour interval. […]

[2] = Hygroscopicity test, weighed samples kept at varied humidity at 30° C. for one week; type: physicochemical; conditions: for Hygroscopicity (in words): any tested relative humidity
Method: After one week, the samples were weighed again and based on the original weight the percentage weight difference was calculated.

[3] = Plasma concentration of the drug in the human clinical study; type: in vivo; conditions: 2 hours after administration in the morning, 2.5 mg b.i.d.-10 mg b.i.d., patients
[4] = Method: The temperature was 25° C. using step intervals of 10% between 0% and 95% RH in two consecutive cycles.

CCCNCCOc1cc(F)cc(S(C)(=O)=O)c1 [Example 2, [2-(3-fluoro-5-methanesulfonylphenoxy)ethyl](propyl)amine]
Good ON time (in words) [1]: increased the good ON time to a larger extent

CCCNCCOc1cc(F)cc(S(C)(=O)=O)c1 [Example 7, [2-(3-fluoro-5-methanesulfonylphenoxy)ethyl](propyl)amine hemi-L-tartrate]
Hygroscopicity (in words) [2]: very low hygroscopicity | Hygroscopicity (in words) ([2]; listed as L-tartaric acid salt): not hygroscopic at any relative humidities | Weight change ([2]; even at very high relative humidity such as 73%, 75%, 83% or 97% for 7 days at 30° C.): ≤ 0.3% | concentration at 2 h [3]: 50 to 200 nM

CCCNCCOc1cc(F)cc(S(C)(=O)=O)c1 [Formula IV]
Hygroscopicity (in words) [2]: not being hygroscopic | Weight change ([2]; at any humidity such as any relative humidity): ≤ 0.3 % by weight

CCCNCCOc1cc(F)cc(S(C)(=O)=O)c1.Cl [hydrochloric acid salt, hydrochloric acid salt of [2-(3-fluoro-5-methanesulfonylphenoxy)-ethyl](propyl)amine]
Weight gain ([4]; 95% relative humidity and 25° C., DVS): approximately 3% | Hygroscopicity (in words) ([4]; high relative humidities): hygroscopic at high relative humidities
